Calls of active or inactive are those of the source.
Assays:
Cytochrome P450 2C9 = Cytochrome P450 2C9 (Homo sapiens, UniProt P11712)
Cytochrome P450 2C19 = Cytochrome P450 2C19 (Homo sapiens, UniProt P33261); test: Cytochrome panel assay with activity outcomes. Panel member name: p450-cyp2c19 Compounds with AC50 equal or less than 10 uM are considered active; type: functional
[1] = molecular target: T1, Replicative DNA helicase DnaB (Mycobacterium tuberculosis, UniProt P9WMR3); test: DnaB intein splicing inhibitors, dose response, biochemical, cell-free fluorescence (AID 449749); type: functional
T1 sequence (P9WMR3 whole entry): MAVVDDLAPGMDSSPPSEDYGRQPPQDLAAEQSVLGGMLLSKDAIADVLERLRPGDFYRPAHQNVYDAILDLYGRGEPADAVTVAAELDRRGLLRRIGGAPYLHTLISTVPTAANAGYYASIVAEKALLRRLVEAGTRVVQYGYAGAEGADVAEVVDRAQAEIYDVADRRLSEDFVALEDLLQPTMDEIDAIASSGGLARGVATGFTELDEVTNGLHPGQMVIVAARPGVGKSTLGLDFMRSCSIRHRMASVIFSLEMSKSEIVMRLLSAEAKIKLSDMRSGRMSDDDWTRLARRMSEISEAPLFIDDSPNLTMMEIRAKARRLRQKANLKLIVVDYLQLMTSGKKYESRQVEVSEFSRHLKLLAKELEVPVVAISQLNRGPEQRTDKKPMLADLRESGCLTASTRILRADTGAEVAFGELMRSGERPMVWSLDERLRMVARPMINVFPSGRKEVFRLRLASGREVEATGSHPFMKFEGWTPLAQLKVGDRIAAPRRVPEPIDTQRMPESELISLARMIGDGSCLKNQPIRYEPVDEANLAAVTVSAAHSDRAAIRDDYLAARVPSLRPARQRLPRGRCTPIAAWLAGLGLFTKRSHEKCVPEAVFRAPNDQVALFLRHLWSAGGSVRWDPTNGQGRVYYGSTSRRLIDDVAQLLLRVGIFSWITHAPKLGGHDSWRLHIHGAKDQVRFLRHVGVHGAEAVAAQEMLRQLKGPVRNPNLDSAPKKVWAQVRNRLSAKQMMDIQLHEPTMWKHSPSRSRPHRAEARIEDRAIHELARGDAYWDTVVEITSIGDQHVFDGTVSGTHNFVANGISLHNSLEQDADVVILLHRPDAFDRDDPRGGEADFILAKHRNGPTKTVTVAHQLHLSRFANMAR

Protein RecA = molecular target: T2, Protein RecA (Mycobacterium tuberculosis, UniProt P9WHJ3); test: Fluorescence Cell-Free Homogeneous Dose Retest to Identify Inhibitors of RecA-Intein Splicing Activity. [Related pubchem assays (depositor defined):AID2097, AID2223, AID489010, AID492950]; type: functional
T2 sequence (P9WHJ3 whole entry): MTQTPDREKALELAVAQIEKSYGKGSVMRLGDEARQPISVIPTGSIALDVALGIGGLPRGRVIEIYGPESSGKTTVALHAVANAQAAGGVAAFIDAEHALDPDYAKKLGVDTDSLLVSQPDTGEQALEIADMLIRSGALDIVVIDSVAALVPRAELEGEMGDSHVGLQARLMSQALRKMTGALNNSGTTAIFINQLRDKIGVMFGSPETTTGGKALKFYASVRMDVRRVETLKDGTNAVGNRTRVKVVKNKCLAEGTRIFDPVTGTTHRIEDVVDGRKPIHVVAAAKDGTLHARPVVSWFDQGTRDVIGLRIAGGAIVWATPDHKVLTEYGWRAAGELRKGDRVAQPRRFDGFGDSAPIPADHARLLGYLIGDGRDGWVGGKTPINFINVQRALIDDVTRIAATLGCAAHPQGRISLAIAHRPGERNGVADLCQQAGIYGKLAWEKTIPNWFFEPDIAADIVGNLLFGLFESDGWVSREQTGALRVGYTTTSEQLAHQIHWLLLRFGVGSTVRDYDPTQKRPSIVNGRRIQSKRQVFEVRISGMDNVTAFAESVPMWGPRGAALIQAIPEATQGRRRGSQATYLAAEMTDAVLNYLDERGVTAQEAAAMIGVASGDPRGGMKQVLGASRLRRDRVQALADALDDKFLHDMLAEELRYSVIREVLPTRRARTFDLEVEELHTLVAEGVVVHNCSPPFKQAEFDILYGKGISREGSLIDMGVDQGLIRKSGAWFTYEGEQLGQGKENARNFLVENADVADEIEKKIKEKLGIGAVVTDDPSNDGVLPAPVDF

[2] = molecular target: T3, Corticotropin-releasing factor receptor 2/Corticotropin-releasing factor-binding protein (Homo sapiens, UniProt P24387+Q13324); test: activators of CRF receptor 2 with binding protein – uHTS hits, confirmation (AID 602473); type: functional; details: read-out: EC50_Mean
T3 sequence (Q13324 whole entry): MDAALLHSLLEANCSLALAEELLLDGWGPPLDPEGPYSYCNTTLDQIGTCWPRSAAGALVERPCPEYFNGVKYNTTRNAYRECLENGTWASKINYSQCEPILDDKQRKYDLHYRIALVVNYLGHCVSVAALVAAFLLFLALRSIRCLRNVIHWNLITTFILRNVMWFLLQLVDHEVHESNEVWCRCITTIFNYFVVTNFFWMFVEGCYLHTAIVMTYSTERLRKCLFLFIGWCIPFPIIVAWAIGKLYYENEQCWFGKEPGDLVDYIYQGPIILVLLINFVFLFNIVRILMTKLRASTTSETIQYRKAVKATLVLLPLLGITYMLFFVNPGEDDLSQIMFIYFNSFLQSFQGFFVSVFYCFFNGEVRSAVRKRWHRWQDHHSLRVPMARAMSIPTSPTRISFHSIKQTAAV
T3 sequence (P24387 whole entry): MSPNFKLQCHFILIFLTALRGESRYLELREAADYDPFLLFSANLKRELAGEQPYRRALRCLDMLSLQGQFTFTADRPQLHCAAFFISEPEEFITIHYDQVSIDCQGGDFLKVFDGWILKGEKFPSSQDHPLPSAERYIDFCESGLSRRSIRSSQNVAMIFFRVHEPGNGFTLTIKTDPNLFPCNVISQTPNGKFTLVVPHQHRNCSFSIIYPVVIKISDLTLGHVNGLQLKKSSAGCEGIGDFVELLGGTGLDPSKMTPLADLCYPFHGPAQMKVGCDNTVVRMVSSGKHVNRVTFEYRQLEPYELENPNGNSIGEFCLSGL

[3] = molecular target: T3, Corticotropin-releasing factor receptor 2/Corticotropin-releasing factor-binding protein; test: Dose Response confirmation of uHTS hits for small molecule antagonists of the CRF-binding protein and CRF-R2 receptor complex.; type: functional; details: read-out: IC50_Mean
Cytochrome P450 3A4 = Cytochrome P450 3A4 (Homo sapiens, UniProt P08684);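 note: CYP3A4 tested as one member of a cytochrome P450 panel screen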
Chain of Cytochrome P450 3A4 (P08684 whole entry): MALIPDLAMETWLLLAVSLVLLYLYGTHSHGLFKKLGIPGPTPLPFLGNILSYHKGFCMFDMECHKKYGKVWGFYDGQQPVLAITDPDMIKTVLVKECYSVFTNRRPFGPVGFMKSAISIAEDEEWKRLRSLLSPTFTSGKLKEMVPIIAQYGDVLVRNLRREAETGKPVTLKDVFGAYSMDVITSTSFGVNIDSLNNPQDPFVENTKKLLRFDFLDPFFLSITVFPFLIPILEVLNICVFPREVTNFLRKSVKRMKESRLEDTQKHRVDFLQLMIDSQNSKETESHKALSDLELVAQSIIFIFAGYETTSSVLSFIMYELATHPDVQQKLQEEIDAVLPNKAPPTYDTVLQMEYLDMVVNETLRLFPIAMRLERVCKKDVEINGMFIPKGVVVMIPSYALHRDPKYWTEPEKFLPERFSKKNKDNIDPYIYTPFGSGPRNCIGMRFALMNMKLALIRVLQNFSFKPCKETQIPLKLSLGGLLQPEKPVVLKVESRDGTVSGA

H4 = test: Luminescence Cell-Based Dose Response HTS to Identify Activators of 5'UTR Stem-Loop Driven Prion Protein mRNA Translation in H4 Neuroglioblastoma Cells. [Related pubchem assays: 1829 (Project Summary), 1814 (Primary HTS)]; type: functional; details: Homo sapiens
[4] = Luminescence Cell-Based Dose Response HTS to Identify Activators of Luciferase Translation or Activity in H4 […] Cells. [Related pubchem assays: 1829 (Project Summary), 1814 (Primary HTS)]; type: functional

Chain of Cytochrome P450 2C9 (P11712 whole entry): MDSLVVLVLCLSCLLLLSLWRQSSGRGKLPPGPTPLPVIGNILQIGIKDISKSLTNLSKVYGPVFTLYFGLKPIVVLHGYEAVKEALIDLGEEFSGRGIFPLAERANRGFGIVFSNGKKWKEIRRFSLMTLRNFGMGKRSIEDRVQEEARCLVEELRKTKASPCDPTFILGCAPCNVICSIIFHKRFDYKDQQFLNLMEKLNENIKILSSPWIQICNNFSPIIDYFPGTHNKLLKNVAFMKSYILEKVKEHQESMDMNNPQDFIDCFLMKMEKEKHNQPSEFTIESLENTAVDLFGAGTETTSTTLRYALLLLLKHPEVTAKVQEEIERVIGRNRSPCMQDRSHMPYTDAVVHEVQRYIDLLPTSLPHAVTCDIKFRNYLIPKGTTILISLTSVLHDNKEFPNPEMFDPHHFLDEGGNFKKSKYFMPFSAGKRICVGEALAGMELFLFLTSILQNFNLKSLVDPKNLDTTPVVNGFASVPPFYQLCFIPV
Chain of Cytochrome P450 2C19 (P33261 whole entry): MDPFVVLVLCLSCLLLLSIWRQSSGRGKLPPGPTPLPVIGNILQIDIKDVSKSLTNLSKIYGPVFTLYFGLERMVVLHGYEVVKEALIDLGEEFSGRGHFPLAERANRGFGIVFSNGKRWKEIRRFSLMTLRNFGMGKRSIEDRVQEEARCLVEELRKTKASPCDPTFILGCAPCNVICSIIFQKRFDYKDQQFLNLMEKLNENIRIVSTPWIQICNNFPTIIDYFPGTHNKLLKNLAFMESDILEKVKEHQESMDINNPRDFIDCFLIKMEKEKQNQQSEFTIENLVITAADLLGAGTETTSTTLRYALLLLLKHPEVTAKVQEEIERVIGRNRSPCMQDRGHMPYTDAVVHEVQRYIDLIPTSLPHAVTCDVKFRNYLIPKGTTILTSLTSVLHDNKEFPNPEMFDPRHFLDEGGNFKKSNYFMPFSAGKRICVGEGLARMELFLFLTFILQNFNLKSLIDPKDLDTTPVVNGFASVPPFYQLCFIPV

## CC(C)c1nc2ccccn2c1NC1CCCCC1
Cytochrome P450 2C9
  AC50: 39.8 µM (inconclusive)
Cytochrome P450 2C19; read-out: AC50
  AC50: 22.4 µM (inconclusive)

## CC(C)=CCC/C(C)=C/CO/N=C1/C[C@@H](O)[C@@H](O)[C@@H]2[C@@H]3C(=O)N(Cc4ccccc4)C(=O)[C@H]3CC[C@@H]12
Cytochrome P450 2C19
  AC50: inconclusive

## O=C1C(Cc2ccccc2)Nc2ncnc(N3CCc4ccccc4C3)c2N1Cc1ccc(Cl)cc1 (configuration not stated)
[1]
  AC50: > 120 µM (inactive)
Protein RecA
  EC50: > 380 µM (inconclusive)

## O=C(O)C1C2CCC(C2)C1C(=O)NCc1ccco1 (configuration not stated)
Cytochrome P450 2C19; read-out: AC50
  AC50: 7.94 µM (inconclusive)

## COc1ccc(CCNC2=C(Cl)C(=O)N(Cc3ccccc3)C2=O)cc1OC
[2]
  EC50: > 53 µM (inactive)
[3]
  IC50: > 47.1 µM (inactive)

## O=C(/C=C/c1ccc2ccccc2n1)N1CCN(c2ccccc2)CC1
[2]
  EC50: > 53 µM (inactive)
[3]
  IC50: > 47.1 µM (inactive)

## CCNc1ncc2nc(CCc3ccccc3)c(=O)n(-c3ccc(OC)cc3)c2n1
Cytochrome P450 2C9
  AC50: 15.8 µM (inconclusive)
Cytochrome P450 2C19; read-out: AC50
  AC50: 39.8 µM (inconclusive)

## COCCCN1Cc2ccccc2C1=N
Cytochrome P450 2C9
  AC50: 11.2 µM (inconclusive)
Cytochrome P450 2C19; read-out: AC50
  AC50: 39.8 µM (inconclusive)

## Cc1n[nH]c2c1C1(CCN(Cc3ccccc3)CC1)C(C#N)=C(N)O2
[1]
  AC50: > 380 µM (inactive)
Protein RecA
  EC50: 1.07 µM (active)

## CS(=O)(=O)c1ccc(C(=O)CN2C(=O)NC3(CCCc4ccccc43)C2=O)cc1 (configuration not stated)
[2]
  EC50: > 53 µM (inactive)
[3]
  IC50: > 47.1 µM (inactive)

## O=C(CSc1nnnn1-c1ccccc1)NCCCN1CCCC1=O
[2]
  EC50: > 53 µM (inactive)
[3]
  IC50: > 47.1 µM (inactive)

## COc1cc2[nH]c(=O)n(CCCCCC(=O)NC3CCCC3)c(=O)c2cc1OC
[2]
  EC50: > 53 µM (inactive)
[3]
  IC50: > 47.1 µM (inactive)

## CC(C)(C)NC(=O)C(c1ccccn1)N(C(=O)C1CSC(=O)C1)c1cccc(F)c1 (configuration not stated)
[2]
  EC50: > 53 µM (inactive)
[3]
  IC50: > 47.1 µM (inactive)

## CCCc1nnc(SCC(=O)N2CCCCC2C)n1CCCOC (configuration not stated)
Cytochrome P450 2C9
  AC50: 0.0251 µM (inconclusive)
Cytochrome P450 2C19; read-out: AC50
  AC50: 39.8 µM (inconclusive)
Cytochrome P450 3A4
  AC50: 15.8 µM (inconclusive)

## CCOc1ccccc1NC(=O)CCC(=O)O
Cytochrome P450 2C19; read-out: AC50
  AC50: 3.16 µM (inconclusive)

## Cc1ccc(N2CC(C(=O)NC3CCC(C)CC3)CC2=O)cc1 (configuration not stated)
[2]
  EC50: > 53 µM (inactive)
[3]
  IC50: > 47.1 µM (inactive)

## Cc1ccc(/N=c2/sc(C)c(C)n2C)cc1
H4
  EC50: 108 µM (active)
[4]
  EC50: 13.9 µM (active)

Reference: ChEMBL document CHEMBL1201862, “PubChem BioAssay data set” (2004)
